Reference: PubChem BioAssay AID1259407 (Chemical Carcinogenesis Research Information System (CCRIS), 2018)
The source made the active and inactive calls. The rule behind the calls is not given here.

Test system: CCRIS mutagenicity, Ames/micronucleus/aberration tests
Test: CCRIS mutagenicity studies

Structure (SMILES): CC1(C)C(C=C(Cl)Cl)C1C(=O)OC(C#N)c1ccc(F)c(Oc2ccccc2)c1 (stereo not given)
- mutagenic call (End Point: In vitro chromosomal aberrations, Test System: Human lymphocytes, Metabolic Activation: Male Sprague-Dawley rat, liver, S-9, Aroclor 1254): inactive; negative
- mutagenic call (End Point: In vitro chromosomal aberrations, Test System: Human lymphocytes, Metabolic Activation: None): inactive; negative
- mutagenic call (End Point: In vitro chromosomal aberrations, Test System: Human lymphocytes, Metabolic Activation: S-9 (No details given by DPR evaluator)): inactive; negative
- mutagenic call (End Point: In vivo micronucleus, Test System: Bone marrow erythrocytes, Strain/Indicator: Bor:NMRI (SPF Han)/ Female, Species: Mouse, Route: Oral): inactive; negative (no significant effect on frequency of micronucleated polychromatic ery
- mutagenic call (End Point: In vivo micronucleus, Test System: Bone marrow erythrocytes, Strain/Indicator: Bor:NMRI (SPF Han)/ Male, Species: Mouse, Route: Oral): inactive; negative (no significant effect on frequency of micronucleated polychromatic ery
- mutagenic call (Test System: Ames Salmonella typhimurium, Strain/Indicator: TA98, Metabolic Activation: None, Method: Plate incorporation): inactive; negative
- mutagenic call (Test System: Ames Salmonella typhimurium, Strain/Indicator: TA98, Metabolic Activation: S-9 (Additional details not given by DPR evaluator), Method: Plate incorporation): inactive; negative
- mutagenic call (Test System: Ames Salmonella typhimurium, Strain/Indicator: TA100, Metabolic Activation: None, Method: Plate incorporation): inactive; negative
- mutagenic call (Test System: Ames Salmonella typhimurium, Strain/Indicator: TA100, Metabolic Activation: S-9 (Additional details not given by DPR evaluator), Method: Plate incorporation): inactive; negative
- mutagenic call (Test System: Ames Salmonella typhimurium, Strain/Indicator: TA1535, Metabolic Activation: None, Method: Plate incorporation): inactive; negative
- mutagenic call (Test System: Ames Salmonella typhimurium, Strain/Indicator: TA1535, Metabolic Activation: S-9 (Additional details not given by DPR evaluator), Method: Plate incorporation): inactive; negative
- mutagenic call (Test System: Ames Salmonella typhimurium, Strain/Indicator: TA1537, Metabolic Activation: None, Method: Plate incorporation): inactive; negative
- mutagenic call (Test System: Ames Salmonella typhimurium, Strain/Indicator: TA1537, Metabolic Activation: S-9 (Additional details not given by DPR evaluator), Method: Plate incorporation): inactive; negative
- mutagenic call (Test System: CHO-HGPRT, Strain/Indicator: CHO-Ki-BH4 cells, Metabolic Activation: None, Method: Forward mutation assay): inactive; negative
- mutagenic call (Test System: CHO-HGPRT, Strain/Indicator: CHO-Ki-BH4 cells, Metabolic Activation: S-9 (No additional details presented by DPR evaluator), Method: Forward mutation assay): inactive; negative
- mutagenic call (Test System: UDS Rat hepatocytes, Strain/Indicator: Thymidine incorporation, Metabolic Activation: None, Method: Autoradiography): inactive; negative

Structure (SMILES): CCC(Cl)C(=O)O (stereo not given)
- mutagenic call (End Point: IN VITRO CHROMOSOMAL ABERRATIONS, Test System: CHL CELLS, Metabolic Activation: RAT, LIVER, S-9, SODIUM PHENOBARBITAL AND 5,6-BENZOFLAVONE): inactive; negative
- mutagenic call (End Point: IN VITRO CHROMOSOMAL ABERRATIONS, Test System: CHL/IU CELLS, Metabolic Activation: NONE): active; positive (structural changes)
- mutagenic call (End Point: IN VITRO MICRONUCLEUS, Test System: CHL/IU CELLS, Metabolic Activation: NONE): active; positive

Structure (SMILES): [O]=[Mo](=[O])=[O]
- mutagenic call (Test System: AMES SALMONELLA TYPHIMURIUM, Strain/Indicator: TA97, Metabolic Activation: HAMSTER, LIVER, S-9, AROCLOR 1254 (10%), Method: PREINCUBATION): inactive; negative
- mutagenic call (Test System: AMES SALMONELLA TYPHIMURIUM, Strain/Indicator: TA97, Metabolic Activation: HAMSTER, LIVER, S-9, AROCLOR 1254 (30%), Method: PREINCUBATION): inactive; negative
- mutagenic call (Test System: AMES SALMONELLA TYPHIMURIUM, Strain/Indicator: TA97, Metabolic Activation: NONE, Method: PREINCUBATION): inactive; negative
- mutagenic call (Test System: AMES SALMONELLA TYPHIMURIUM, Strain/Indicator: TA97, Metabolic Activation: RAT, LIVER, S-9, AROCLOR 1254 (10%), Method: PREINCUBATION): inactive; negative
- mutagenic call (Test System: AMES SALMONELLA TYPHIMURIUM, Strain/Indicator: TA97, Metabolic Activation: RAT, LIVER, S-9, AROCLOR 1254 (30%), Method: PREINCUBATION): inactive; negative
- mutagenic call (Test System: AMES SALMONELLA TYPHIMURIUM, Strain/Indicator: TA98, Metabolic Activation: HAMSTER, LIVER, S-9, AROCLOR 1254 (10 OR 30%), Method: PREINCUBATION): inactive; negative
- mutagenic call (Test System: AMES SALMONELLA TYPHIMURIUM, Strain/Indicator: TA98, Metabolic Activation: NONE, Method: PREINCUBATION): inactive; negative
- mutagenic call (Test System: AMES SALMONELLA TYPHIMURIUM, Strain/Indicator: TA98, Metabolic Activation: RAT, LIVER, S-9, AROCLOR 1254 (10 OR 30%), Method: PREINCUBATION): inactive; negative
- mutagenic call (Test System: AMES SALMONELLA TYPHIMURIUM, Strain/Indicator: TA100, Metabolic Activation: HAMSTER, LIVER, S-9, AROCLOR 1254 (10% OR 30%), Method: PREINCUBATION): inactive; negative
- mutagenic call (Test System: AMES SALMONELLA TYPHIMURIUM, Strain/Indicator: TA100, Metabolic Activation: NONE, Method: PREINCUBATION): inactive; negative
- mutagenic call (Test System: AMES SALMONELLA TYPHIMURIUM, Strain/Indicator: TA100, Metabolic Activation: RAT, LIVER, S-9, AROCLOR 1254 (10% OR 30%), Method: PREINCUBATION): inactive; negative
- mutagenic call (Test System: AMES SALMONELLA TYPHIMURIUM, Strain/Indicator: TA1535, Metabolic Activation: HAMSTER, LIVER, S-9, AROCLOR 1254 (10%), Method: PREINCUBATION): inactive; negative
- mutagenic call (Test System: AMES SALMONELLA TYPHIMURIUM, Strain/Indicator: TA1535, Metabolic Activation: HAMSTER, LIVER, S-9, AROCLOR 1254 (30%), Method: PREINCUBATION): inactive; negative
- mutagenic call (Test System: AMES SALMONELLA TYPHIMURIUM, Strain/Indicator: TA1535, Metabolic Activation: NONE, Method: PREINCUBATION): inactive; negative
- mutagenic call (Test System: AMES SALMONELLA TYPHIMURIUM, Strain/Indicator: TA1535, Metabolic Activation: RAT, LIVER, S-9, AROCLOR 1254 (10%), Method: PREINCUBATION): inactive; negative
- mutagenic call (Test System: AMES SALMONELLA TYPHIMURIUM, Strain/Indicator: TA1535, Metabolic Activation: RAT, LIVER, S-9, AROCLOR 1254 (30%), Method: PREINCUBATION): inactive; negative
- mutagenic call (Test System: AMES SALMONELLA TYPHIMURIUM, Strain/Indicator: TA1537, Metabolic Activation: HAMSTER, LIVER, S-9, AROCLOR 1254 (30%), Method: PREINCUBATION): inactive; negative
- mutagenic call (Test System: AMES SALMONELLA TYPHIMURIUM, Strain/Indicator: TA1537, Metabolic Activation: NONE, Method: PREINCUBATION): inactive; negative
- mutagenic call (Test System: AMES SALMONELLA TYPHIMURIUM, Strain/Indicator: TA1537, Metabolic Activation: RAT, LIVER, S-9, AROCLOR 1254 (30%), Method: PREINCUBATION): inactive; negative
- mutagenic call (Test System: MOUSE LYMPHOMA, Strain/Indicator: L5178Y (TK+/TK-), Metabolic Activation: RAT, LIVER, S-9, AROCLOR 1254, Method: SUSPENSION/PLATE): active; positive. reevaluation of results: positive
- mutagenic call (Test System: Mouse lymphoma, Strain/Indicator: L5178Y (tk+/tk-), Metabolic Activation: None, Method: Suspension/plate): inactive; inconclusive (previous evaluation negative)
